According to paper PMC6681021 (Pharmaceutics, 2019):
Values joined by “and” are separate entries in the source; they are usually repeats but may differ in a detail not shown here. Identical values can stand only once. Like-named read-outs stand apart in the source and are kept apart here.

Columns and labels:
[1] = Pharmacokinetics after oral administration of tofacitinib to rats; assay type: in vivo, Sprague-Dawley rats; settings: for CL renal / Cmax / Tmax / bioavailability: male, Sprague-Dawley; for CL renal / Cmax / Tmax / bioavailability / AUC: rat; for CL renal: plasma and urine; for Cmax / Tmax / bioavailability / AUC: plasma; for bioavailability: dose-normalized oral AUC / AUC of 10 mg/kg iv, read-out: F (bioavailability); for Dose-normalized AUC: normalized to 10 mg/kg; for AUC: male Sprague-Dawley rats
Procedure: The pretreatment and surgical procedures for oral and intravenous administration were similar to those described previously. For oral administration, the rats were fasted overnight with free access to water. The rats were anesthetized with ketamine (200 mg/kg), and their carotid arteries were cannulated using polyethylene tubing (Clay Adams, Parsippany, NJ, USA) for blood sampling. For intravenous administration, the rats were anesthetized with ketamine (200 mg/kg), and their jugular veins and carotid arteries were cannulated for drug administration and blood sampling, respectively. Rats were allowed to recover for 4–5 h after surgical procedures. The rats were not restrained during the experimental period and had free access to water and food.
Blood samples (110–220 μL) were collected via the carotid artery at times 0 (prior to drug administration), 5, 15, 30, 45, 60, 90, 120, 180, 240, 360, 480, 600, and 720 min. Urine and gastrointestinal tract samples were also obtained over 24 h were processed as described above for the corresponding samples collected after intravenous administration.
Two microliters of hydrocortisone (5 mg/mL) and 40 μL of 20% ammonia solution were added to 100 μL aliquots of biological samples and vortex-mixed for 30 s using a vortex mixer. Each solution was extracted with 1.5 mL of ethyl acetate by centrifugation at 12,000 rpm for 5 min. The organic layer was collected and dried (Dry Thermobath, Eyela, Tokyo, Japan) under a gentle stream of nitrogen gas at 40 °C. The samples were reconstituted in 130 μL of 20% acetonitrile, and 50 μL of resuspended samples were analyzed by HPLC [12].
The mobile phase consisted of a 69.5:30.5 (v/v) mixture of 10 mM ammonium acetate buffer (pH 5.0) and acetonitrile, respectively, with a flow rate of 1.0 mL/min. Column effluent was monitored by a UV detector at 287 nm.
(§1) Pharmacokinetic parameters, including AUC, apparent volume of distribution at steady state (Vss), mean residence time (MRT), and time-averaged total body (CL), renal (CLR), and nonrenal (CLNR) clearances, were calculated by noncompartmental analysis (WinNonlin, Pharsight Corporation, Mountain View, CA, USA) using standard methods. AUC values were calculated using the trapezoidal rule–extrapolation method. The peak plasma concentration (Cmax) and time to reach Cmax (Tmax) were obtained directly from the experimental data. The mean values of clearance, terminal half-life, and Vss were calculated using the harmonic mean method.

[2] = humans, cited from earlier work
[3] = Hepatic first-pass effect: 30-min intravenous vs intraportal infusion in rats; assay type: in vivo, Sprague-Dawley rats; settings: for AUC / CL renal / MRT / clearance / half-life / Vd: Sprague-Dawley, rat, plasma; for half-life: read-out: Terminal half-life; for Vd: read-out: Vss
Procedure: The carotid artery and jugular vein were handled as described previously. In addition, the vein from the cecum was cannulated and the cannula was pushed forward about 4 cm toward the liver through the portal vein to minimize the damage from blood flowing into the portal vein [13, 14]. […] Blood samples were collected from the carotid artery at times 0, 15, 30 (at the end of the infusion), 31, 35, 45, 60, 90, 150, 210, 270, 390, 510, and 630 min, with all sample collection and processing procedures identical to those described above.
as §1

[4] = 30-min intraportal infusion, 10 mg/kg (n = 7)
[5] = 30-min intravenous infusion, 10 mg/kg

Which “Time to detection in plasma after oral administration” value ([1]; all four oral doses) does the source give for `C[C@@H]1CCN(C(=O)CC#N)C[C@@H]1N(C)c1ncnc2[nH]ccc12` [tofacitinib, 3-[(3R,4R)-4-methyl-3-[methyl-(7H-pyrrolo[2,3-day]pyrimidin-4-l)amino]piperidin-1-yl]-3-oxopropanenitril] here?
The value was ≤ 5 min.

And the “Ae0–24 h” value ([1]; all oral doses)?
The value was “less than 17.2%”.

And the F in rats ([1]; based on calculations using the same intravenous and oral doses)?
Its F in rats is 29.1–33.8%.

What about the CL renal ([1]; oral 10 mg/kg) of the same molecule?
Its CL renal is 11.6 ± 2.87 mL/min/kg.

And the CL renal ([1]; oral 20 mg/kg)?
Its CL renal is 6.97 ± 3.95 mL/min/kg.

What about the CL renal ([1]; oral 50 mg/kg) of the same molecule?
Its CL renal is 7.61 ± 2.82 mL/min/kg.

And the CL renal ([1]; oral 100 mg/kg)?
The CL renal was 3.37 ± 2.52 mL/min/kg.

What about the Cmax ([1]; oral 10 mg/kg) of the same molecule?
Its Cmax is 1130 ± 774 ng/mL.

And the Tmax ([1]; oral 10 mg/kg)?
Its Tmax is 15.7 min.

And the bioavailability ([1]; oral 10 mg/kg)?
Its bioavailability is 29.1%.

What about the Cmax ([1]; oral 20 mg/kg) of the same molecule?
The Cmax was 3130 ± 1270 ng/mL.

What about the Tmax ([1]; oral 20 mg/kg) of the same molecule?
The Tmax was 15.7 min.

And the bioavailability ([1]; oral 20 mg/kg)?
The bioavailability was 39.3%.

And the Cmax ([1]; oral 50 mg/kg)?
The Cmax was 5620 ± 2180 ng/mL.

What about the Tmax ([1]; oral 50 mg/kg) of the same molecule?
The Tmax was 34.4 min.

What about the bioavailability ([1]; oral 50 mg/kg) of the same molecule?
Its bioavailability is 69.7%.

And the Cmax ([1]; oral 100 mg/kg)?
The Cmax was 13100 ± 5480 ng/mL.

And the Tmax ([1]; oral 100 mg/kg)?
The Tmax was 170 min.

And the bioavailability ([1]; oral 100 mg/kg)?
The bioavailability was 119%.

And the “Ae0–24 h” value ([1]; oral 10 mg/kg)?
The value was 11.3 ± 4.60 % of dose.

And the “Orally administered dose absorbed from the gastrointestinal tract” value ([1]; oral 10 mg/kg)?
Its value is “approximately 96.8%”.

And the “Unabsorbed fraction (Funabs)” value ([1]; oral 10 mg/kg, at 24 h)?
Its value is 3.16%.

And the “Dose-normalized AUC” value ([1]; oral 10 mg/kg)?
The value was 99.4 µg·min/mL and 99.4 ± 35.5 µg·min/mL.

What about the “GI24 h (recovered unchanged from entire gastrointestinal tract at 24 h)” value ([1]; oral 10 mg/kg, 10 mg/kg) of the same molecule?
The value was 3.16 % of dose and 3.16 ± 5.12 % of dose.

And the “Orally administered dose eliminated by first-pass metabolism” value ([1]; oral 10 mg/kg, 100% − (3.16% + 29.1%))?
Its value is “approximately 67.7%”.

What about the “Ae0–24 h” value ([1]; oral 20 mg/kg) of the same molecule?
The value was 10.0 ± 6.51 % of dose.

And the “GI24 h (recovered unchanged from entire gastrointestinal tract at 24 h)” value ([1]; oral 20 mg/kg)?
Its value is 3.13 ± 3.27 % of dose.

What about the “Dose-normalized AUC” value ([1]; oral 20 mg/kg) of the same molecule?
The value was 135 µg·min/mL and 135 ± 26.9 µg·min/mL.

And the “Ae0–24 h” value ([1]; oral 50 mg/kg)?
The value was 17.2 ± 3.98 % of dose.

And the “GI24 h (recovered unchanged from entire gastrointestinal tract at 24 h)” value ([1]; oral 50 mg/kg)?
Its value is 2.77 ± 3.96 % of dose.

And the “Dose-normalized AUC” value ([1]; oral 50 mg/kg)?
Its value is 238 µg·min/mL and 238 ± 56.0 µg·min/mL.

What about the “Ae0–24 h” value ([1]; oral 100 mg/kg) of the same molecule?
Its value is 13.0± 9.47 % of dose.

What about the “GI24 h (recovered unchanged from entire gastrointestinal tract at 24 h)” value ([1]; oral 100 mg/kg) of the same molecule?
Its value is 0.772± 0.905 % of dose.

What about the “Dose-normalized AUC” value ([1]; oral 100 mg/kg) of the same molecule?
Its value is 407 µg·min/mL and 407 ± 179 µg·min/mL.

And the “Slope of plot of AUC versus dose” value ([1]; oral, dose and AUC ratios based on 10 mg/kg)?
Its value is 4.65.

What about the AUC ([1]; oral 10 mg/kg) of the same molecule?
Its AUC is 1660 ng·h/mL.

What about the AUC ([1]; oral 20 mg/kg) of the same molecule?
Its AUC is 4480 ng·h/mL.

What about the AUC ([1]; oral 50 mg/kg) of the same molecule?
The AUC was 19900 ng·h/mL.

And the AUC ([1]; oral 100 mg/kg)?
Its AUC is 67900 ng·h/mL.

And the Terminal half-life [2]?
The Terminal half-life was 192 min.

And the Volume of distribution [2]?
Its Volume of distribution is 87 L.

And the “Bound to plasma proteins” value ([2]; oral)?
The value was 40%.

And the “AUC after intraportal administration as % of that after intravenous administration” value ([3]; 10 mg/kg)?
The value was 58.0%.

And the “CL faster after intraportal than intravenous administration” value ([3]; 10 mg/kg)?
Its value is 67%.

What about the “CLNR faster after intraportal than intravenous administration” value ([3]; 10 mg/kg) of the same molecule?
The value was 60%.

What about the “Vss higher after intraportal than intravenous administration” value ([3]; 10 mg/kg) of the same molecule?
The value was 50%.

What about the “Ae0–24 h” value [3, 4] of the same molecule?
Its value is 10.7 ± 9.42 % of dose.

What about the CLNR [3, 4] of the same molecule?
The CLNR was 38.5 ± 10.4 mL/min/kg.

What about the “Ae0–24 h” value [3, 5] of the same molecule?
Its value is 12.5 ± 5.20 % of dose.

And the CLNR [3, 5]?
The CLNR was 24.0 ± 6.46 mL/min/kg.

And the AUC [3, 4]?
Its AUC is 4030 ng·h/mL.

What about the CL renal [3, 4] of the same molecule?
Its CL renal is 5 ± 4.69 mL/min/kg.

What about the MRT [3, 4] of the same molecule?
Its MRT is 59.6 min.

What about the clearance [3, 4] of the same molecule?
Its clearance is 43.8 ± 11 mL/min/kg.

What about the half-life [3, 4] of the same molecule?
Its half-life is 42.4 ± 10.4 min.

And the Vd [3, 4]?
Its Vd is 2.55 ± 0.72 L/kg.

What about the AUC [3, 5] of the same molecule?
Its AUC is 6950 ng·h/mL.

And the CL renal [3, 5]?
Its CL renal is 2.34 ± 2.9 mL/min/kg.

What about the MRT [3, 5] of the same molecule?
The MRT was 67.5 min.

And the clearance [3, 5]?
Its clearance is 26.3 ± 8.85 mL/min/kg.

And the half-life [3, 5]?
The half-life was 46.2 ± 12.5 min.

And the Vd [3, 5]?
The Vd was 1.7 ± 0.737 L/kg.
